Test results from US12410153B2, “Compounds, compositions and methods” (Avalo Therapeutics, Inc., priority 2014, dated 2025).

Assays:
[1] = target: T1, GluN1a/GluN2B human receptors (Homo sapiens, UniProt Q05586+Q13224); assay: Radioligand binding, L(tk−) cell membranes expressing human GluN1a/GluN2B; set-up: expressed in transfected cells; host or cells: L(tk−) cells (mouse fibroblasts), dexamethasone-inducible expression; settings: geometric mean
[2] = Respiratory effects in anesthetized dogs, 5-min IV infusion; assay type: in vivo, dog; settings: dog, plasma, 3 mg/kg
Experimental: (§1) Respiratory effects were investigated in rats and dogs. […] Mean Form II plasma concentration was approximately 30 μM (10600 ng/mL) at the end of infusion and approximately 4 μM (1250 ng/mL) at 60 min post-infusion.

dogs = assay: as above; assay type: in vivo, dog; settings: 3 mg/kg, monitored 60 min
Experimental: as §1

[3] = target: T2, NMDA-GluN2B receptors, human temporal cortex homogenate (Homo sapiens, UniProt Q05586+Q13224); assay: Radioligand binding, human temporal cortex homogenate; settings: geometric mean
T2 construct: temporal cortex homogenate (human); from tissue; host or cells: human temporal cortex homogenate
T2 sequence (Q13224 27-1484, other chains not shown): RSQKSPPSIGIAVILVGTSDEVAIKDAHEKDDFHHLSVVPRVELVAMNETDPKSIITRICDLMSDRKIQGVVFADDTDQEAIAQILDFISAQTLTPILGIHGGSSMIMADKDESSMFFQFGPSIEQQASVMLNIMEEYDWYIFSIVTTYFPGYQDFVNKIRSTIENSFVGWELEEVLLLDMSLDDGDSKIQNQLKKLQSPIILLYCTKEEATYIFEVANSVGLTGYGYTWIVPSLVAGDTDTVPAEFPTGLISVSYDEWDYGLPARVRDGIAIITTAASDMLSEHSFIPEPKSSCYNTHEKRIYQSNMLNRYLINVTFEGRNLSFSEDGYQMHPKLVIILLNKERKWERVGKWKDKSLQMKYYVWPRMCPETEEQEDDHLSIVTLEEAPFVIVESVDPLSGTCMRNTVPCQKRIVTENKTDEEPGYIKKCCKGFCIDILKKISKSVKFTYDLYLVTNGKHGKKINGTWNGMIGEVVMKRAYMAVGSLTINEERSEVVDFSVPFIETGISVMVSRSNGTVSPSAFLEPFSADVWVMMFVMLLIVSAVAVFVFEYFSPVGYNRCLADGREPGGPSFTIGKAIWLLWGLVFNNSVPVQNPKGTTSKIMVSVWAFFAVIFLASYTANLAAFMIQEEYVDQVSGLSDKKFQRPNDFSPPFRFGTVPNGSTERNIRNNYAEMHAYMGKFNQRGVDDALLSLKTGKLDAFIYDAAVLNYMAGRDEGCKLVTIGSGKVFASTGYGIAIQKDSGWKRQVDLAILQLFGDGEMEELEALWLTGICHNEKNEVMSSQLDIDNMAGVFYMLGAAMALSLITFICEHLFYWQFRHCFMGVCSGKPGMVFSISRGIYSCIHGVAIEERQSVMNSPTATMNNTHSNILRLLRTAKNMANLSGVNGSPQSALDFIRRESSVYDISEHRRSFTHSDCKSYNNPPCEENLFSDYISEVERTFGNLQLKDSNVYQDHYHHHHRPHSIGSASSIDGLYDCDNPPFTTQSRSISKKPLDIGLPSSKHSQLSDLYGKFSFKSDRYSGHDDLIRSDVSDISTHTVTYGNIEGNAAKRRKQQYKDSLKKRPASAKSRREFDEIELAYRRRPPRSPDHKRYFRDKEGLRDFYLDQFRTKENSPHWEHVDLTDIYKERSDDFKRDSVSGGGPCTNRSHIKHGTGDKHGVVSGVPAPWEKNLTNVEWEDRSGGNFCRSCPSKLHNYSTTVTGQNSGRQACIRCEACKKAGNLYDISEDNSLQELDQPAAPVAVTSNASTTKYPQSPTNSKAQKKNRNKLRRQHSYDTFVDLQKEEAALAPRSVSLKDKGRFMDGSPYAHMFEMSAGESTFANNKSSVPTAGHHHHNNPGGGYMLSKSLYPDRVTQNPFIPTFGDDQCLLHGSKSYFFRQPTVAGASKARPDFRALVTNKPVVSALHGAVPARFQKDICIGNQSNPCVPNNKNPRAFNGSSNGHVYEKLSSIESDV
Experimental: (§2) Radioligand binding assays were performed at room temperature (or 37° C.) in 96-well microtiter plates with a final assay volume of […] in 20 mM HEPES buffer (pH 7.4) containing 150 mM NaCl. […] Nonspecific binding was assessed using N-(3-chlorobenzyl)-4-iodobenzimidamide (final concentration, 10 μM), and total binding was measured by addition of DMSO (final concentration, 2%). L(tk−) cell membranes expressing human GluN1a/GluN2B receptors (final concentration, 40 pM) and [^3H]-[(E)-N1-(2-methoxybenzyl)-cinnamamidine] (final concentration, 1 nM) were added to all wells of the microtiter plate. After 3 h (24 h or 48 h) of incubation at room temperature (or 37° C.), samples were filtered through Packard GF/B filters (presoaked in 0.05% polyethylenimine [PEI; Sigma P-3143]) and washed 10 times with 1 mL of cold 20 mM HEPES buffer per wash. After vacuum drying of the filter plates, 50 μL of Packard Microscint-20 was added and the bound radioactivity determined in a Packard TopCount.
(§3) Analogous binding experiments, to those described above for the cloned human receptor expressed in L(tk−) cells, were also performed using whole brain homogenate (rat), frontal cortex homogenate (dog and rhesus monkey), and temporal cortex homogenate (human).

hERG current = hERG current (Homo sapiens, UniProt Q12809); assay: In vitro hERG assay; assay type: cell-based
Experimental: (§4) The potential effects of Form II of Compound (I) on the functions of the nervous system, cardiovascular system, and respiratory system were evaluated in a battery of safety pharmacology studies that included an in vitro human ether-a-go-go-related gene (hERG) assay and in vivo studies in rats, dogs, and monkeys. CNS effects were tested in rats at single doses at 15, 75, and 225 mg/kg.
(§5) Effects of Form II on the cardiovascular system were tested in several studies. Potential QTc effects were tested in vitro and in vivo.

[4] = target: T1, GluN1a/GluN2B human receptors; assay: Calcium influx (FLIPR) in GluN1a/GluN2B L(tk−) cells
[5] = target: T3, NMDA-GluN2B receptors, dog frontal cortex homogenate (Canis lupus familiaris, UniProt Q5R1P0+Q5R1P3); assay: Radioligand binding, dog frontal cortex homogenate; settings: geometric mean
T3 construct: frontal cortex homogenate (dog and rhesus monkey); from tissue; host or cells: dog frontal cortex homogenate
T3 sequence (Q5R1P3 27-1485, other chains not shown): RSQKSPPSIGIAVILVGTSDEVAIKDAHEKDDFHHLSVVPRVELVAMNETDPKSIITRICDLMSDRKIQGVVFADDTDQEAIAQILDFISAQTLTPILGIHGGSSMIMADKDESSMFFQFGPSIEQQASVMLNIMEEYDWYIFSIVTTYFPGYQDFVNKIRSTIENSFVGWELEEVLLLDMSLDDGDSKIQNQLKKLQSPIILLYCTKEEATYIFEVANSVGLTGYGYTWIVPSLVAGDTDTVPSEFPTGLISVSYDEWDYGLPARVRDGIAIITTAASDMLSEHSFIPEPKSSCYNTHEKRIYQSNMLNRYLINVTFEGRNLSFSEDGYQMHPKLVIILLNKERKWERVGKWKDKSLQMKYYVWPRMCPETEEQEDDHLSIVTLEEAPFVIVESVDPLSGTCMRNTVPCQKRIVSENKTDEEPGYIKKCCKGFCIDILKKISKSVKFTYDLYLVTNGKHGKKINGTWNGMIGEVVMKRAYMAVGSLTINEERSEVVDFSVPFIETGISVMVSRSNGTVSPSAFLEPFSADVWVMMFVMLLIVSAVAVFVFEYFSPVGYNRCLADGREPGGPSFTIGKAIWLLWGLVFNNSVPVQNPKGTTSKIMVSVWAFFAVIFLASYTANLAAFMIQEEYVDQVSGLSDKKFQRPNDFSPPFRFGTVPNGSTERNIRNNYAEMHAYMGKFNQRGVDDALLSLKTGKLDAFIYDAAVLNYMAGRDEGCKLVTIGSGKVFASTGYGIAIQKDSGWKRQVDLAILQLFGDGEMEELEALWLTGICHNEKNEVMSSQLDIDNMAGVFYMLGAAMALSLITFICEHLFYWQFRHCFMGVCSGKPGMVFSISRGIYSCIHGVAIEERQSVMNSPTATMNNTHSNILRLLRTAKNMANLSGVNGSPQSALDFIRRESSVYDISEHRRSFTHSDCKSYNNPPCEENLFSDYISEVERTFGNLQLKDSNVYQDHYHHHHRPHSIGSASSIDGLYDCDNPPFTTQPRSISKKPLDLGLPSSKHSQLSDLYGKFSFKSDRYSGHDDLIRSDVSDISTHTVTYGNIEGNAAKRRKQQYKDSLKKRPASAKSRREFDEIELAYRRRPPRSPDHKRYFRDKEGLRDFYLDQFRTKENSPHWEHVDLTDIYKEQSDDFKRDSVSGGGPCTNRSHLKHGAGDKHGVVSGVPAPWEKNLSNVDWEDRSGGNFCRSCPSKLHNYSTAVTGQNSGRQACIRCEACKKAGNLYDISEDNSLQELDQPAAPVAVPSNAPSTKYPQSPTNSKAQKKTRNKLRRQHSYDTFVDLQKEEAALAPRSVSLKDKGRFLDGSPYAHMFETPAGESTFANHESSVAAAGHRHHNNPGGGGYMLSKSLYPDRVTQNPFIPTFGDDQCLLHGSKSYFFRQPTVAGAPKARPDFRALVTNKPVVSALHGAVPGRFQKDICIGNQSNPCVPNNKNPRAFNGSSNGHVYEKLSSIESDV
Experimental: as §2, §3

monkeys = assay: Cardiovascular safety in conscious chair-restrained monkeys, single oral doses; assay type: in vivo, monkey
Experimental: as §4, §5
(§6) Hemodynamic effects were tested in dogs and monkeys. […] However, Form II did produce dose-independent increases in systolic (12-15 mm Hg), diastolic (7-10 mm Hg), and mean arterial pressures (9-12 mm Hg) in conscious, chair-restrained monkeys given single oral doses at 15, 75, or 150 mg/kg and monitored for 6 h post-dose.

[6] = as above; assay type: in vivo, monkey; settings: monkey, plasma
Experimental: as §4, §5, §6

[7] = target: T4, NMDA-GluN2B receptors, rat whole brain homogenate (Rattus norvegicus, UniProt P35439+Q00960); assay: Radioligand binding, rat whole brain homogenate; settings: geometric mean
T4 construct: performed using whole brain homogenate (rat); from tissue; host or cells: rat whole brain homogenate
Experimental: as §2, §3

[8] = Single-dose pharmacokinetics in monkeys (oral and IV); assay type: in vivo; settings: male, rhesus monkey, plasma
Experimental: Male Sprague-Dawley rats (N=8; N=4 oral and N=4 intravenous [IV]) weighing approximately 250-280 g and male rhesus monkeys (N=4, crossover) weighing 6.0-8.8 kg were used for the PK studies. In rats, the IV dose of crystalline Form II of Compound (I) at 2 mg/kg (0.4 mL/kg) was administered as a bolus and the oral dose was administered by gavage at 15 mg/kg (5 mL/kg). In monkeys, the IV dose of Form II at 2 mg/kg (0.1 mL/kg) was administered as a slow bolus and the oral dose was administered via nasogastric tube at 15 mg/kg (5 mL/kg). Blood samples were serially collected pre-dose, and at 0.083 (IV only), 0.25, 0.50, 1, 2, 4, 6, 8, 10, 24, 48, 72, and 96 h post-dose. The concentrations of Form II in rat and monkey plasma were determined by LC/MS/MS analysis in the positive ion mode using a heated nebulizer interface. The lower limit of quantitation was 2.5 ng/mL (approximately 0.00697 μM).

in vivo = settings: both, Sprague-Dawley, rat, po
[9] = 15, 75, or 150 mg/kg oral, dose-independent
[10] = rhesus, PO 15 mg/kg, mean (S.D.)

T1 sequence (Q13224 27-1484, other chains not shown): as the sequence (Q13224 27-1484, other chains not shown) above

Compound: Cc1ccc(COC(=O)N2CC[C@H](CNc3ncccn3)[C@H](F)C2)cc1 [Form II, 4-methylbenzyl (3S, 4R)-3-fluoro-4-[(pyrimidin-2-ylamino)methyl] piperidine-1-carboxylate]
- Ki ([1]; 4° C.): 1.8 nM
- Ki ([1]; 37° C.): 31 nM
- Ki ([1]; room temp.): 4.9 nM
- concentration at 60 min ([2]; read-out: mean plasma concentration at 60 min post-infusion): ~4 µM
- concentration at 5 min ([2]; read-out: mean plasma concentration at the end of infusion): ~30 µM
- respiratory parameters and blood pH, pCO2, pO2 (dogs): did not affect
- Ki ([3]; 37° C.): 8.1 nM
- Ki ([3]; room temp.): 3.1 nM
- IC50 (hERG current): ~13000 nM
- IC50 [4]: 3.6 nM
- Ki ([5]; 37° C.): 13 nM
- Ki ([5]; room temp.): 3.2 nM
- heart rhythm and ECG parameters (monkeys; 15, 75, and 150 mg/kg oral, monitored 6 h): did not affect
- increase in diastolic pressure (monkeys; [9]): 7-10 mm Hg
- increase in mean arterial pressure (monkeys; [9]): 9-12 mm Hg
- increase in systolic pressure (monkeys; [9]): 12-15 mm Hg
- Cmax ([6]; 15 mg/kg oral): ~3 µM
- Cmax ([6]; 75 mg/kg oral): ~9 µM
- Cmax ([6]; 150 mg/kg oral): ~15 µM
- Ki ([7]; 37° C.): 14 nM
- Ki ([7]; room temp.): 3.3 nM
- bioavailability ([8]; 15 mg/kg, dose-normalized AUC0-∞ after IV and PO, crossover): 50%
- Tmax ([8]; po, 15 mg/kg, PO 15 mg/kg, mean (S.D.)): ~2 h
- half-life ([8]; IV 2 mg/kg, mean (S.D.)): 4.2 h
- clearance ([8]; IV 2 mg/kg, mean (S.D.), read-out: CLp): 15.1 mL/min/kg
- Vd ([8]; IV 2 mg/kg, mean (S.D.), read-out: Vdss): 2.9 L/kg
- AUC(0-inf) ([8]; rhesus, IV 2 mg/kg, mean (S.D.)): 6.67 µM·h
- AUC(0-inf) [8, 10]: 25.1 µM·h
- Cmax [8, 10]: 3.6 µM
- Cmax (in vivo; 10 mg/kg): ~4 µM
- Cmax (in vivo; 30 mg/kg): ~14 µM
- Cmax (in vivo; 100 mg/kg): ~26 µM
